Measured values: US20240343723A1, “CRYSTAL FORM OF LANIFIBRANOR, PREPARATION METHOD THEREFOR, AND USE THEREOF” (CRYSTAL PHARMACEUTICAL (SUZHOU) CO., LTD., priority 2021, published 2024)
Entries after “also recorded” stand apart in the source; their conditions may differ.

Legend:
Type in all cases: physicochemical
[1] = Physical and chemical stability on storage (XRPD, HPLC); conditions: for chemical purity during storage: HPLC; for Form after storage: XRPD
Protocol: A certain amount of Form CSV of the present disclosure was stored under different conditions of 40° C./75% RH and 60° C./75% RH. Crystalline form and chemical purity were checked by XRPD and HPLC, respectively. Open packaged: Put the sample into a glass vial, cover the vial with aluminum foil, and punch 5-10 holes in the foil. Sealed packaged: Put the sample into a glass vial, and seal the vial and desiccant in an aluminum foil bag. A certain amount of Form CSIII of the present disclosure was stored under different conditions of 25° C./60% RH and 40° C./75% RH with sealed and open packaged. Crystalline form and chemical purity were checked by XRPD and HPLC, respectively. Open packaged: Put the sample into a glass vial, cover the vial with an aluminum foil, and punch 5-10 holes in the foil. Sealed packaged: Put the sample into a glass vial, and seal the vial and desiccant in an aluminum foil bag.

[2] = Dynamic vapor sorption (DVS) hygroscopicity, with XRPD before and after DVS; conditions: for crystalline state after DVS (XRPD): humidity cycle 0%-95%-0% RH; for weight gain from 0% to 70% RH: 25° C., cycle of 0%-95%-0% RH
Protocol: Dynamic Vapor Sorption (DVS) was measured via an SMS (Surface Measurement Systems Ltd.) intrinsic DVS instrument. The instrument control software is DVS-Intrinsic control software. Typical Parameters for DVS test are as follows: • Temperature: 25° C. • Gas and flow rate: N2, 200 mL/min • RH range: 0% RH to 95% RH Dynamic vapor sorption (DVS) analyzer was applied to evaluate the hygroscopicity of amorphous with a certain amount of sample obtained by Example 6. The weight gains at each relative humidity were recorded in a cycle of 0%-95%-0% RH. […] Dynamic vapor sorption (DVS) analyzer was applied to evaluate hygroscopicity of Form CSV with a certain amount of sample. The weight gains at each relative humidity were recorded in a cycle of 0%-95%-0% RH. Dynamic vapor sorption (DVS) analyzer was applied to evaluate hygroscopicity of Form CSIII with a certain amount of sample. The weight gains at each relative humidity were recorded in a cycle of 0%-95%-0% RH. The XRPD patterns of Form CSIII before and after DVS test are shown in FIG. 13 and the DVS curve of Form CSIII is shown in FIG. 13.

[3] = Adhesiveness: material sticking to the punch after compression; conditions: about 30 mg, 8 mm round tooling, 10 kN held for 30s
Protocol: ENERPAC manual tablet press was used for testing. Approximately 30 mg of Form CSV was weighed and then added into the dies of @8 mm round tooling, compressed at 10 kN and held for 30s. The punch was weighed and the amount of material sticking to the punch was calculated. The compression was repeated twice and the maximum amount and average amount of material sticking to the punch during the compression were recorded.

[4] = Physical stability upon mechanical force (tableting, XRPD)
Description: A certain amount of Form CSV was compressed into tablet under different pressures with suitable tableting die. Crystalline form before and after tableting were checked by XRPD.

[5] = Flowability by compressibility index (bulk and tapped density)
Protocol: Compressibility index is usually utilized to evaluate the flowability of powder or granules during the drug product process. Compressibility index test method is as follows: a certain amount of powder was added into a measuring cylinder and bulk volume was recorded. Then the powder was tapped to make it in the tightest state and the tapped volume was recorded. The bulk density (ρ0) and tapped density (ρf) were calculated and compressibility index was calculated according to c=(ρf−ρ0)/ρf.

[6] = 40° C./75% RH, open and sealed package

## O=C(O)CCCc1cc2cc(Cl)ccc2n1S(=O)(=O)c1ccc2ncsc2c1 [Form CSIII, 5-Chloro-1-[(6-benzothiazolyl)sulfonyl]-1H-indole-2-butanoic acid]
[1]; 25° C./60% RH, at least 6 months
  chemical purity during storage: above 99.5%
[1]; 25° C./60% RH, sealed and open packaged
  time for which the form is stable: at least 6 months
[1]; 40° C./75% RH, at least 2 months
  chemical purity during storage: above 99.5%
[1]; [6]
  time for which the form is stable: at least 2 months
[2]
  crystalline state after DVS (XRPD): remains unchanged

## O=C(O)CCCc1cc2cc(Cl)ccc2n1S(=O)(=O)c1ccc2ncsc2c1 [Form CSV, 5-Chloro-1-[(6-benzothiazolyl)sulfonyl]-1H-indole-2-butanoic acid]
[3]
  average adhesion amount: 0.45 mg
[1]; [6]
  time for which the form is stable: at least 9 months
[1]; 40° C./75% RH, open packaged, 9 months
  Form after storage: Form CSV
[1]; 40° C./75% RH, sealed packaged, 9 months
  Form after storage: Form CSV
[1]; 60° C./75% RH, open and sealed package
  time for which the form is stable: at least 1 month
[1]; 60° C./75% RH, open packaged, 1 month
  Form after storage: Form CSV
[1]; 60° C./75% RH, sealed packaged, 1 month
  Form after storage: Form CSV
[4]; Pressure 5 kN
  Solid form after tableting: Form CSV
[4]; Pressure 10 kN
  Solid form after tableting: Form CSV
[4]; Pressure 20 kN
  Solid form after tableting: Form CSV
[2]; DVS
  weight gain from 0% to 70% RH: 0.35%
[2]
  crystalline state after DVS (XRPD): remains unchanged; also recorded: doesn't change
[5]
  Bulk density: 0.412 g/mL
  Tapped density: 0.515 g/mL
[5]; class by compressibility index, ICH Q4B Annex 13
  Flowability: Fair (16-20)

## O=C(O)CCCc1cc2cc(Cl)ccc2n1S(=O)(=O)c1ccc2ncsc2c1 [amorphous, 5-Chloro-1-[(6-benzothiazolyl)sulfonyl]-1H-indole-2-butanoic acid, reference compound]
[2]; DVS, 0 to 70% RH
  weight gain of amorphous from 0 to 70% RH relative to that of Form CSV: about 3.4 times
[2]; DVS
  weight gain from 0% to 70% RH: 1.18%
[2]; DVS, listed as prior art amorphous
  weight gain from 0% to 70% RH: 1.18%
